From article PMC7933434, “Entropy-driven binding of gut bacterial β-glucuronidase inhibitors ameliorates irinotecan-induced toxicity” (Communications Biology, 2021)
“And” between values parts separate entries of the source, which are not always exact repeats. Equal entries are not always repeated. Where two headings read alike, the source gives them in different places.

How the values were obtained:
[1] = target: EcGUS (Escherichia coli, UniProt P05804); experiment: Isothermal titration calorimetry, EcGUS; format: binding; conditions: EcGUS
[2] = target: EcGUS (Escherichia coli GUS) (Escherichia coli, UniProt P05804); experiment: biochemical
[3] = target: T1, HsGUS (human GUS) (Homo sapiens, UniProt P08236); experiment: GUS inhibition assay, hydrolysis of 4-methylumbelliferyl-β-glucuronide, HsGUS; format: biochemical; parameters: GUS activity (hydrolysis rate of MUG): unit not given here
T1 construct: HsGUS was prepared as described[37]; made in house
T1 sequence (P08236 23-651): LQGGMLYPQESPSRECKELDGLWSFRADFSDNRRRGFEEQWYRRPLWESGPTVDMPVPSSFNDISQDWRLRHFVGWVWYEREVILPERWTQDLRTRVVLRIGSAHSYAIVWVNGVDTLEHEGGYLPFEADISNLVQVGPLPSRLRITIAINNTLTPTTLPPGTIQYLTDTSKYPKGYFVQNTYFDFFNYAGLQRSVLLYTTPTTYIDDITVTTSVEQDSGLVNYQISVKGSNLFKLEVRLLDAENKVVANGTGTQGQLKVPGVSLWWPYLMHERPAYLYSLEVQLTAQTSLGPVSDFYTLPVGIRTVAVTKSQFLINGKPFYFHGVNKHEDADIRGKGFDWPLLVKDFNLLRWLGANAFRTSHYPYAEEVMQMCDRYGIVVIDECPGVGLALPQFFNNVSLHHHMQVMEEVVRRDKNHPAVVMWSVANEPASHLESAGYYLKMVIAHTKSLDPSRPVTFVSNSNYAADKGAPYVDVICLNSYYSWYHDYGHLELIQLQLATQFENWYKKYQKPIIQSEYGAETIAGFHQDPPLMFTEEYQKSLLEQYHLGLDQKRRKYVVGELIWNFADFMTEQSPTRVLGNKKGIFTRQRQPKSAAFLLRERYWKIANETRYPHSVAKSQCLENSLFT

[4] = target: LgGUS (Lactobacillus gasseri GUS) (Lactobacillus gasseri, UniProt Q9AHJ8); experiment: GUS inhibition assay, hydrolysis of 4-methylumbelliferyl-β-glucuronide, LgGUS; format: biochemical; parameters: GUS activity (hydrolysis rate of MUG) / 1/v: unit not given here; conditions: for Ki: LgGUS; for 1/v / GUS activity (hydrolysis rate of MUG): [Inhibitor 4] = 0.1 μM
[5] = phosphate buffer (250 mM NaCl, 20 mM KH2PO4, 100 mM Na2HPO4, pH 8.0), 298 K

Chain of EcGUS (P05804 whole entry): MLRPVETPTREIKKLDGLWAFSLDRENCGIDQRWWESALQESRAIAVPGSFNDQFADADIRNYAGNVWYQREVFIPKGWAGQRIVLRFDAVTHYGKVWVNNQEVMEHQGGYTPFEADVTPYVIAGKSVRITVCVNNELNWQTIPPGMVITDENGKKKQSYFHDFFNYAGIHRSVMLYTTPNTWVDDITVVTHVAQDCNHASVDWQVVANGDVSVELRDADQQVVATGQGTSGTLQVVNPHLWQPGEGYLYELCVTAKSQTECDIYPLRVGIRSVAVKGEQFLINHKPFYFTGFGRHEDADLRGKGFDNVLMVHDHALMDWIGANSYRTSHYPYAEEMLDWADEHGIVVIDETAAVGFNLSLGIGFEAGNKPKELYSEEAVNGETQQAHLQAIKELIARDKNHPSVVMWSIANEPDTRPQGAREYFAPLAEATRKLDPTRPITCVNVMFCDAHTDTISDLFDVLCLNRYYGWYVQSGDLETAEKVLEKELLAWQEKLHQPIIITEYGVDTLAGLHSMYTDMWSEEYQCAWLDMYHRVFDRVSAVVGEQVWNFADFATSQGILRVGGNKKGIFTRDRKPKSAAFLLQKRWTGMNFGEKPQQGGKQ
Chain of LgGUS (Lactobacillus gasseri GUS) (Q9AHJ8 1-598): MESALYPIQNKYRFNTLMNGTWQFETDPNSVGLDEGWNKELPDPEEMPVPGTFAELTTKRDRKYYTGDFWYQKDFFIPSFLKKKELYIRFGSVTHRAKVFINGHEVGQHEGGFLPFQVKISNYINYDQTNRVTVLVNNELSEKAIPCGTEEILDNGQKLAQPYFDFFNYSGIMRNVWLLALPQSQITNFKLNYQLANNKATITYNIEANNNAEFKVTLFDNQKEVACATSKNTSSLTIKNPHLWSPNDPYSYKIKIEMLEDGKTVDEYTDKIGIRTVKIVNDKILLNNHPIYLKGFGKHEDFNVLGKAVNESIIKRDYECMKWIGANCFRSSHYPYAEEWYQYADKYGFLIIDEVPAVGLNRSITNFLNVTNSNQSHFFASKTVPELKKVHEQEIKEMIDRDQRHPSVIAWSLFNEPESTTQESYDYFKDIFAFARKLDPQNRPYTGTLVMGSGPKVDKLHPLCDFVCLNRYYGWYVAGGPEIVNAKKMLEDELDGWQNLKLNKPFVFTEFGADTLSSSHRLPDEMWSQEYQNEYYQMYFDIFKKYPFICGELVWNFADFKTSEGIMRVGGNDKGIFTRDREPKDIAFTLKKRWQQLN
Chain of EcGUS (Escherichia coli GUS) (P05804 whole entry): as the sequence (P05804 whole entry) above

CCCCCCCCC[C@@H]1NC[C@@H](O)[C@H](O)[C@H]1C(=O)O [Inhibitor 4, C6-nonyl UIFG]
ΔH ([1]; Tris buffer (250 mM NaCl, 20 mM Tris, pH 8.0), 298 K): close to zero | ΔΔH relative to 2 (ΔΔH2–3, ΔΔH2–4) ([1]; phosphate buffer): +0.99 kcal mol^−1 | –TΔΔS relative to 2 (–TΔΔS2–3, –TΔΔS2–4) ([1]; phosphate buffer): -1.34 kcal/mol | Kd [1, 5]: 160 ± 40 nM | ΔG [1, 5]: –9.30 ± 0.13 kcal/mol | ΔH [1, 5]: –3.00 ± 0.02 kcal/mol | —TΔS [1, 5]: –6.31 ± 0.15 kcal/mol | Ki [2]: 4.5 nM | Ki ([2]; 50 mM HEPES pH 7.5, 37 °C): 4.5 ± 0.7 nM | Ki ([3]; HsGUS, 50 mM sodium acetate pH 4.5, 37 °C): 105000 nM | GUS activity (hydrolysis rate of MUG) ([3]; [Inhibitor 4] =32 μM, [MUG] 0.1 mM): 862.058 and 811.68 | GUS activity (hydrolysis rate of MUG) ([3]; [Inhibitor 4] =32 μM, [MUG] 0.2 mM): 1454.23 and 1423.51 | GUS activity (hydrolysis rate of MUG) ([3]; [Inhibitor 4] =32 μM, [MUG] 0.4 mM): 2392.78 and 2276.09 | GUS activity (hydrolysis rate of MUG) ([3]; [Inhibitor 4] =32 μM, [MUG] 0.6 mM): 3009.56 and 2960.24 | GUS activity (hydrolysis rate of MUG) ([3]; [Inhibitor 4] =32 μM, [MUG] 0.8 mM): 3491.23 and 3336.67 | GUS activity (hydrolysis rate of MUG) ([3]; [Inhibitor 4] =32 μM, [MUG] 1.2 mM): 3870.44 and 4183.78 | GUS activity (hydrolysis rate of MUG) ([3]; [Inhibitor 4] =32 μM, [MUG] 1.6 mM): 4158.21 and 4615.97 | GUS activity (hydrolysis rate of MUG) ([3]; [Inhibitor 4] =32 μM, [MUG] 2 mM): 4779.14 and 4997.44 | GUS activity (hydrolysis rate of MUG) ([3]; [Inhibitor 4] =67 μM, [MUG] 0.1 mM): 714.053 and 717.679 | GUS activity (hydrolysis rate of MUG) ([3]; [Inhibitor 4] =67 μM, [MUG] 0.2 mM): 1251.96 and 1238.2 | GUS activity (hydrolysis rate of MUG) ([3]; [Inhibitor 4] =67 μM, [MUG] 0.4 mM): 2074.49 and 2003.18 | GUS activity (hydrolysis rate of MUG) ([3]; [Inhibitor 4] =67 μM, [MUG] 0.6 mM): 2680.12 and 2744.95 | GUS activity (hydrolysis rate of MUG) ([3]; [Inhibitor 4] =67 μM, [MUG] 0.8 mM): 3069.97 and 3096.82 | GUS activity (hydrolysis rate of MUG) ([3]; [Inhibitor 4] =67 μM, [MUG] 1.2 mM): 3696.42 and 3579.45 | GUS activity (hydrolysis rate of MUG) ([3]; [Inhibitor 4] =67 μM, [MUG] 1.6 mM): 4205.98 and 4285.65 | GUS activity (hydrolysis rate of MUG) ([3]; [Inhibitor 4] =67 μM, [MUG] 2 mM): 4703.3 and 4573.62 | GUS activity (hydrolysis rate of MUG) ([3]; [Inhibitor 4] =132 μM, [MUG] 0.1 mM): 517.307 and 519.469 | GUS activity (hydrolysis rate of MUG) ([3]; [Inhibitor 4] =132 μM, [MUG] 0.2 mM): 900.965 and 901.806 | GUS activity (hydrolysis rate of MUG) ([3]; [Inhibitor 4] =132 μM, [MUG] 0.4 mM): 1492.38 and 1537.56 | GUS activity (hydrolysis rate of MUG) ([3]; [Inhibitor 4] =132 μM, [MUG] 0.6 mM): 1976.12 and 2037.84 | GUS activity (hydrolysis rate of MUG) ([3]; [Inhibitor 4] =132 μM, [MUG] 0.8 mM): 2410.12 and 2475.98 | GUS activity (hydrolysis rate of MUG) ([3]; [Inhibitor 4] =132 μM, [MUG] 1.2 mM): 2927.86 and 2924.04 | GUS activity (hydrolysis rate of MUG) ([3]; [Inhibitor 4] =132 μM, [MUG] 1.6 mM): 3406.61 and 3409.83 | GUS activity (hydrolysis rate of MUG) ([3]; [Inhibitor 4] =132 μM, [MUG] 2 mM): 3959.47 and 3855.66 | GUS activity (hydrolysis rate of MUG) ([3]; [Inhibitor 4] =180 μM, [MUG] 0.1 mM): 375.667 and 389.113 | GUS activity (hydrolysis rate of MUG) ([3]; [Inhibitor 4] =180 μM, [MUG] 0.2 mM): 647.66 and 642.675 | GUS activity (hydrolysis rate of MUG) ([3]; [Inhibitor 4] =180 μM, [MUG] 0.4 mM): 1075.66 and 1190.92 | GUS activity (hydrolysis rate of MUG) ([3]; [Inhibitor 4] =180 μM, [MUG] 0.6 mM): 1564.63 and 1648.7 | GUS activity (hydrolysis rate of MUG) ([3]; [Inhibitor 4] =180 μM, [MUG] 0.8 mM): 1885.35 and 1934.39 | GUS activity (hydrolysis rate of MUG) ([3]; [Inhibitor 4] =180 μM, [MUG] 1.2 mM): 2412.5 and 2422.72 | GUS activity (hydrolysis rate of MUG) ([3]; [Inhibitor 4] =180 μM, [MUG] 1.6 mM): 2821.07 and 2863.56 | GUS activity (hydrolysis rate of MUG) ([3]; [Inhibitor 4] =180 μM, [MUG] 2 mM): 3316.38 and 3309.46 | GUS activity (hydrolysis rate of MUG) ([3]; [Inhibitor 4] =262 μM, [MUG] 0.1 mM): 312.332 and 326.592 | GUS activity (hydrolysis rate of MUG) ([3]; [Inhibitor 4] =262 μM, [MUG] 0.2 mM): 574.208 and 582.829 | GUS activity (hydrolysis rate of MUG) ([3]; [Inhibitor 4] =262 μM, [MUG] 0.4 mM): 1016.99 and 1025.39 | GUS activity (hydrolysis rate of MUG) ([3]; [Inhibitor 4] =262 μM, [MUG] 0.6 mM): 1397.45 and 1434.43 | GUS activity (hydrolysis rate of MUG) ([3]; [Inhibitor 4] =262 μM, [MUG] 0.8 mM): 1699 and 1721.63 | GUS activity (hydrolysis rate of MUG) ([3]; [Inhibitor 4] =262 μM, [MUG] 1.2 mM): 2236.3 and 2225.05 | GUS activity (hydrolysis rate of MUG) ([3]; [Inhibitor 4] =262 μM, [MUG] 1.6 mM): 2654.14 and 2619.41 | GUS activity (hydrolysis rate of MUG) ([3]; [Inhibitor 4] =262 μM, [MUG] 2 mM): 3001.13 and 3042.83 | Ki [4]: 270 nM | Ki ([4]; 50 mM sodium acetate pH 4.5, 37 °C): 270 ± 74 nM | 1/v ([4]; [MUG] 0.0375 mM): 0.07099 and 0.06547 and 0.07752 | GUS activity (hydrolysis rate of MUG) ([4]; [MUG] 0.0375 mM): 17345 and 18805 and 15888 | 1/v ([4]; [MUG] 0.05 mM): 0.08248 and 0.08036 and 0.08633 | GUS activity (hydrolysis rate of MUG) ([4]; [MUG] 0.05 mM): 14936 and 15328 and 14270 | 1/v ([4]; [MUG] 0.075 mM): 0.1044 and 0.09961 and 0.1132 | GUS activity (hydrolysis rate of MUG) ([4]; [MUG] 0.075 mM): 11804 and 12374 and 10895
